Measured values reported in ChEMBL document CHEMBL5321289, “Establishment of an MR1 Presentation Reporter Screening System and Identification of Phenylpropanoid Derivatives as MR1 Ligands” (J Med Chem, 2023).
The source made the active and inactive calls. No cut-off for these calls is given here.

Experiments:
TG40 cell [1] = assay: Activation of mouse TG40 cells transfected with MAIT-alpha/betaTCR co-cultured with human […] expressing N-terminal HiBit-tagged human beta2m/MR1 assessed as upregulation of CD69 surface expression […] at 1 uM incubated for 24 hrs by flow cytometry; type: functional, cell-based
HEK293 = assay: Induction of cell surface translocation of MR1 in human HEK293 cells expressing N-terminal HiBit-tagged human beta2m/MR1 assessed as increase in MR1 cell surface expression level at 10 uM incubated for 8 hrs followed by labeling with PE-conjugated anti-hMR1 antibody by flow cytometry analysis; type: functional, cell-based
TG40 cell [2] = assay: Activation of mouse TG40 cells transfected with MAIT-alpha/betaTCR co-cultured with human HEK293 cells expressing N-terminal HiBit-tagged human beta2m/MR1 assessed as upregulation of CD69 surface expression on TG40 cells at 1 uM incubated for 24 hrs by flow cytometry; type: functional, cell-based
HeLa [3] = assay: Induction of cell surface translocation of MR1 in human HeLa overexpressing MR1 assessed as increase in MR1 cell surface levels at 10 uM incubated for 8 hrs followed by labeling with PE-conjugated anti-hMR1 antibody by flow cytometry analysis; type: functional, cell-based
[4] = Cytotoxicity against mouse TG40 cells transfected with MAIT-alpha/betaTCR assessed as reduction in cell viability at 3 to 10 uM incubated for 24 hrs by MTS assay; type: toxicity, cell-based; conditions: dose 3-10 µM
HeLa [5] = assay: Cytotoxicity against human HeLa cells overexpressing MR1 assessed as reduction in cell viability at 3 to 100 uM incubated for 24 hrs by MTS assay; type: toxicity, cell-based; conditions: dose 3-100 µM
[6] = Cytotoxicity against mouse TG40 cells transfected with MAIT-alpha/betaTCR assessed as reduction in cell viability at 30 to 100 uM incubated for 24 hrs by MTS assay; type: toxicity, cell-based; conditions: dose 30-100 µM
TG40 cell [7] = assay: Activation of mouse TG40 cells transfected with MAIT-alpha/betaTCR co-cultured with human HeLa cells overexpressing human MR1 assessed as upregulation of CD69 surface expression […] at 10 uM incubated for 24 hrs by flow cytometry; type: functional, cell-based
[8] = Induction of cell surface translocation of MR1 in human HeLa overexpressing MR1 assessed as increase in MR1 cell surface levels incubated for 8 hrs followed by labeling with PE-conjugated anti-hMR1 antibody by flow cytometry analysis; type: functional, cell-based
HeLa [9] = assay: Effect on MR1-specific presentation in human HeLa overexpressing MR1 assessed as increase in HLA-A/B/C cell surface levels incubated for 8 hrs followed by labeling with PE-conjugated anti-hMR1 antibody and APC-conjugated anti-HLA-A/B/C antibody by flow cytometry analysis; type: functional, cell-based
HeLa [10] = assay: Cytotoxicity against human HeLa cells overexpressing MR1 assessed as reduction in cell viability at 3 to 100 uM incubated for 8 hrs by MTS assay; type: toxicity, cell-based; conditions: dose 3-100 µM
HeLa [11] = assay: Induction of cell surface translocation of MR1 in human HeLa overexpressing MR1 assessed as increase in MR1 cell surface levels at 0.1 to 10 uM incubated for 8 hrs followed by labeling with PE-conjugated anti-hMR1 antibody by flow cytometry analysis; type: functional, cell-based; conditions: dose 0.1-10 µM
[12] = Inhibition of 5-OR-RU induced activation of mouse TG40 cells transfected with MAIT-alpha/betaTCR co-cultured with human HeLa cells overexpressing human MR1 assessed as upregulation of CD69 surface expression […] incubated for 24 hrs by flow cytometry; type: functional, cell-based; conditions: TG40 cell
TG40 cell [13] = assay: Activation of mouse TG40 cells transfected with MAIT-alpha/betaTCR co-cultured with human HEK293 cells expressing N-terminal HiBit-tagged human beta2m/MR1 assessed as upregulation of CD69 surface expression on TG40 cells at 10 uM incubated for 24 hrs by flow cytometry; type: functional, cell-based

CC(=O)/C=N/c1c(NC[C@H](O)[C@H](O)[C@H](O)CO)[nH]c(=O)[nH]c1=O
Activity (TG40 cell [1]): inactive
Activity (HEK293): Active
Activity (TG40 cell [2]): Active

COc1cc(/C=C/C(C)=O)ccc1O
Activity (HeLa [3]): inactive

O=C/C=C/c1ccc(O)c(O)c1 [CAFFEOYL ALDEHYDE]
Activity [4]: Non-Toxic
Activity (HeLa [5]): Non-Toxic
Activity [6]: Toxic
Activity (HeLa [3]): Active
Activity (TG40 cell [7]): inactive
EC50 [8]: 2.58 µM
Activity (HeLa [9]): inactive
Activity (HeLa [10]): Non-Toxic

COc1ccc(/C=C/C=O)cc1
Activity (HeLa [3]): inactive

COc1ccc(/C=C/C=O)cc1O
Activity (HeLa [3]): inactive

O=Cc1ccc(O)c(C(=O)O)c1
Activity (HEK293): Active

COCCOC(=O)/C(=C\c1cc(C(C)(C)C)c(O)c(C(C)(C)C)c1)C(C)=O
Activity (HeLa [11]): Dose-Dependent Effect
Activity (TG40 cell [7]): inactive

COc1cc(/C=C/C=O)c[nH]c1=O
Activity (HeLa [3]): inactive

Nc1nc2ncc(C=O)nc2c(=O)[nH]1
Activity [4]: Non-Toxic
Activity (HeLa [5]): Non-Toxic
Activity [6]: Toxic
IC50 [12]: 0.505 µM
EC50 [8]: 1.63 µM
Activity (HeLa [10]): Non-Toxic

COc1cc(/C=C/C#N)ccc1O
Activity (HeLa [3]): inactive

COc1cc(/C=C/C=O)cc2c1OCO2
Activity (HeLa [3]): inactive

COc1ccccc1/C=C/C=O
Activity (HeLa [3]): inactive

COc1cc(/C=C/C=O)c(OC)cc1O
Activity [4]: Non-Toxic
Activity (HeLa [5]): Non-Toxic
Activity [6]: Toxic
Activity (HeLa [3]): Active
Activity (TG40 cell [7]): inactive
IC50 [12]: 7.34 µM
EC50 [8]: 3.89 µM
Activity (HeLa [9]): inactive
Activity (HeLa [10]): Non-Toxic

COc1cc(/C=C/C=O)c(OC)c2c1OCO2
Activity (HeLa [3]): inactive

O=CC1=Cc2ccc(O)cc2OC1
Activity (HeLa [3]): inactive

CCCCCC/C(C=O)=C\c1ccccc1
Activity (HeLa [3]): inactive

COc1cc(O)ccc1/C=C/C=O
Activity [4]: Non-Toxic
Activity (HeLa [5]): Non-Toxic
Activity [6]: Toxic
Activity (HeLa [3]): Active
Activity (TG40 cell [7]): inactive
IC50 [12]: 7.93 µM
EC50 [8]: 5.27 µM
Activity (HeLa [9]): inactive
Activity (HeLa [10]): Non-Toxic

CC(=O)Nc1nc(O)c2nc(C=O)cnc2n1
Activity [4]: Non-Toxic
Activity (HeLa [5]): Non-Toxic
Activity [6]: Toxic
Activity (TG40 cell [13]): inactive
IC50 [12]: 0.017 µM
Activity (HEK293): Active
EC50 [8]: 0.153 µM
Activity (HeLa [9]): inactive
Activity (HeLa [10]): Non-Toxic

COc1cc(C=O)ccc1O
Activity (HeLa [3]): inactive

CC(C)=CCc1cc(/C=C/C=O)ccc1O
Activity (HeLa [3]): inactive

Cc1ccc(/C=C/C=O)cc1
Activity (HeLa [3]): inactive

O=Cc1ccccc1C#C/C=C/CO
Activity (HeLa [11]): Dose-Dependent Effect
Activity (TG40 cell [7]): inactive

COc1ccc(O)c(/C=C/C=O)c1
Activity (HeLa [3]): inactive

COc1cc(/C=C/C=O)cc(OC)c1O
Activity (HeLa [3]): inactive

COc1cc(CCC=O)ccc1O
Activity (HeLa [3]): inactive

COc1cc(I)c(C=O)cc1OC
Activity (HeLa [11]): Dose-Dependent Effect
Activity (TG40 cell [7]): inactive

COc1cc(/C=C/C=C/C=O)ccc1O
Activity (HeLa [3]): inactive

O=C/C=C/c1ccc(O)cc1
Activity (HeLa [3]): inactive

COc1cc(/C=C/C(=O)O)ccc1O
Activity (HeLa [3]): inactive

COc1ccc(/C=C(\C)C=O)cc1
Activity (HeLa [3]): inactive

COc1cc(/C=C/C=O)ccc1O [CONIFERYL ALDEHYDE]
Activity (HeLa [11]): Dose-Dependent Effect
Activity [4]: Non-Toxic
Activity (HeLa [5]): Non-Toxic
Activity [6]: Toxic
Activity (TG40 cell [7]): inactive
IC50 [12]: 11.6 µM
EC50 [8]: 9.03 µM
Activity (HeLa [9]): inactive
Activity (HeLa [10]): Non-Toxic

CC(C)(C)c1cc(C=O)c(O)c(C=O)c1
Activity (HeLa [11]): Dose-Dependent Effect
Activity (TG40 cell [7]): inactive

CN(C)c1cc(/C=C/C=O)ccc1O
Activity (HeLa [3]): inactive

O=C/C=C/c1ccccc1O
Activity (HeLa [3]): inactive

O=Cc1c(O)cccc1I
Activity (HeLa [11]): Dose-Dependent Effect
Activity (TG40 cell [7]): inactive

O=C/C=C/c1ccccc1
Activity (HeLa [3]): inactive

COc1cc(C#C[Si](C)(C)C)c(C=O)cc1OC
Activity (HeLa [11]): Dose-Dependent Effect
Activity (TG40 cell [7]): inactive

COc1cccc(/C=C/C=O)c1
Activity (HeLa [3]): inactive
